{"source": "paper PMC6394474", "about": "“Evaluation of the effects of formulation, food, or a proton-pump inhibitor on the pharmacokinetics of glasdegib (PF-04449913) in healthy volunteers: a randomized phase I study” (Cancer Chemotherapy and Pharmacology, 2018)", "key": {"[1]": {"assay": "Phase I single-dose plasma pharmacokinetics of glasdegib tablet formulations in healthy volunteers (HPLC-MS/MS, noncompartmental analysis)", "format": "in vivo, human", "source_text": "This was a Phase I, randomized, open-label, three-period, four-sequence, four-treatment study in healthy volunteers. Subjects were randomized to one of four treatment sequences (Fig. 1). All subjects received three treatments with a washout period of at least 7 days between each administration period. The duration of each administration period was 6 days with the exception of PPI treatment, which was 12 days (including 6-day follow-up after glasdegib administration).\nNo food was allowed for at least 4 h after glasdegib dosing.\nFollowing a 10-h fast, subjects consumed a recommended high-fat (~ 50% of total caloric content of the meal), high-calorie meal (~ 800 to 1000 calories with 150, 250, and 500–600 calories from protein, carbohydrate, and fat, respectively).\nFollowing a 7-day washout period, rabeprazole 40 mg was administered daily for 7 days. On the day of PK sample collection (day 7 of rabeprazole administration), both rabeprazole and glasdegib were administered in the fasted state. Rabeprazole was administered 4 h before glasdegib. […]\nThe primary PK endpoints were AUCinf and Cmax of glasdegib. Additional PK endpoints were AUC from time 0 to the last quantifiable concentration (AUClast), time for Cmax (Tmax), plasma elimination half-life (t½), apparent oral clearance (CL/F), and apparent volume of distribution following oral dose (Vz/F).\nGlasdegib plasma concentrations were determined at Covance Bioanalytical Services (Shanghai, China) using a validated, sensitive, and specific high-performance liquid chromatography–tandem mass spectrometric (HPLC–MS/MS) method. […]\nCalibration curves were linear over the range of 3–3000 ng/mL for glasdegib in plasma, using a weighted (1/concentration^2) linear regression. The lower limit of quantification (LLOQ) of glasdegib was 3 ng/mL.\nGlasdegib PK parameters were calculated using noncompartmental analysis of plasma concentration–time data. […] AUClast was determined using the linear/log trapezoidal method. […] The t½ was calculated as loge(2)/Kel, CL/F was calculated as dose/AUCinf, and Vz/F was calculated as dose/(AUCinf × Kel). […]"}, "[2]": {"assay": "Safety and tolerability: treatment-emergent adverse event monitoring in healthy subjects", "format": "in vivo, human", "description": "Safety and tolerability of glasdegib were assessed by adverse event (AE) monitoring and changes in clinical laboratory results, ECGs, and physical examination findings. AEs were graded according to the Medical Dictionary for Regulatory Activities version 20.0."}, "[3]": {"design": "method as in PMID 24900436", "details": "unpublished; cited from earlier work"}, "[4]": {"details": "weakly basic drug; higher solubility at acidic pH; cited from earlier work"}, "[5]": {"design": "method as in PMID 29086063", "details": "early maleate-salt tablet formulations, in the presence of PPIs, single 100-mg oral dose; cited from earlier work"}, "Hedgehog pathway": {"tested_on": "Hedgehog pathway", "design": "method as in PMID 28556364", "details": "50 mg QD dose; skin; cited from earlier work"}, "[6]": {"details": "in the presence of a PPI (rabeprazole) vs fasted alone"}}, "note": "Entries after “also recorded” stand apart in the source; their conditions may differ."}
{"compound": "CN1CC[C@@H](NC(=O)Nc2ccc(C#N)cc2)C[C@@H]1c1nc2ccccc2[nH]1", "note": "[glasdegib]", "values": [{"measurement": "decrease in geometric mean AUCinf", "setting": "[1]; high-fat, high-calorie meal vs fasted, single 100 mg oral dose", "value": 16, "unit": "%"}, {"measurement": "change in geometric mean AUCinf", "setting": "[1]; [6]", "value": "did not result in a change"}, {"measurement": "decrease in geometric mean Cmax", "setting": "[1]; [6]", "value": "~ 20%"}, {"measurement": "deaths, serious AEs, severe AEs, dose reductions, discontinuations due to AEs", "setting": "[2]; all treatment arms", "value": "no deaths, serious AEs, severe AEs, dose reductions, or permanent/temporary discontinuations due to AEs"}, {"measurement": "TEAEs reported across all treatment arms", "setting": "[2]; human, in vivo", "value": 17}, {"measurement": "gastrointestinal disorders, share of all TEAEs", "setting": "[2]; human, in vivo", "value": 35, "unit": "%"}, {"measurement": "severity of observed TEAEs", "setting": "[2]; human, in vivo", "value": "mild"}, {"measurement": "subjects with TEAEs across all treatment arms", "setting": "[2]; human, in vivo", "value": 12}, {"measurement": "Biopharmaceutical Classification System class", "setting": "[3]", "value": "II or IV"}, {"measurement": "solubility (pH-dependent)", "setting": "[4]", "value": "drops substantially at pH ≥ 6.3; also recorded: decreasing solubility as pH increases"}, {"measurement": "decrease in Cmax", "setting": "[5]", "value": 13, "unit": "%"}, {"measurement": "increase in AUCinf", "setting": "[5]", "value": 12, "unit": "%"}, {"measurement": "downregulation of the Hedgehog pathway", "setting": "Hedgehog pathway", "value": "consistent downregulation"}]}
